Legend:
soybean = assay: Test B pre/postemergence soybean; format: in vivo, Glycine max
Procedure, shortened: (§1)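 Test chemicals in a non-phytotoxic solvent mixture with surfactant were sprayed preemergence onto planted seeds and postemergence onto plants 2 to 18 cm tall (1- to 4-leaf stage). After twelve to sixteen days in a greenhouse, injury was visually rated against untreated controls from 0 (no effect) to 10 (complete control).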

bamyardgrass = assay: Test B flood test barnyardgrass; format: in vivo, Echinochloa crus-galli
Procedure, shortened: (§2)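 Plants were grown to the 2-leaf stage before treatment with test chemical, then held in a greenhouse for twelve to sixteen days. Injury was visually rated against untreated controls on a 0–10 scale, where 0 is no effect and 10 is complete control.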

surinam grass = assay: Test B pre/postemergence surinam grass; format: in vivo, Brachiaria decumbens
Procedure, shortened: as §1

bedstraw = assay: Test B pre/postemergence bedstraw; format: in vivo, Galium aparine; conditions: Preemergence; for Bedstraw plant response rating: scale of 0 to 10 where 0 is no effect and 10 is complete control; for Plant response rating, Bedstraw: scale 0 to 10 (0 no effect, 10 complete control)
Procedure, shortened: as §1

duck salad = assay: Test B flood test duck salad; format: in vivo, Heteranthera limosa
Procedure, shortened: as §2

blackgrass = assay: Test B pre/postemergence blackgrass; format: in vivo, Alopecurus myosuroides
Procedure, shortened: as §1

velvetleaf = assay: Test B pre/postemergence velvetleaf; format: in vivo, Abutilon theophrasti
Procedure, shortened: as §1

sugar beet = assay: Test B pre/postemergence sugar beet; format: in vivo, Beta vulgaris
Procedure, shortened: as §1

cocklebur = assay: Test B pre/postemergence cocklebur; format: in vivo, Xanthium strumarium
Procedure, shortened: as §1

giant foxtail = assay: Test B pre/postemergence giant foxtail; format: in vivo, Setaria faberii
Procedure, shortened: as §1

smallflower flatsedge = assay: Test B flood test smallflower flatsedge; format: in vivo, Cyperus difformis
Procedure, shortened: as §2

purple nutsedge = assay: Test B pre/postemergence purple nutsedge; format: in vivo, Cyperus rotundus
Procedure, shortened: as §1

corn = assay: Test B pre/postemergence corn; format: in vivo, Zea mays
Procedure, shortened: as §1

rape = assay: Test B pre/postemergence rape; format: in vivo, Brassica napus
Procedure, shortened: as §1

crabgrass = assay: Test B pre/postemergence crabgrass; format: in vivo, Digitaria sanguinalis
Procedure, shortened: as §1

wheat = assay: Test B pre/postemergence wheat; format: in vivo, Triticum aestivum
Procedure, shortened: as §1

rice = assay: Test B flood test rice; format: in vivo, Oryza sativa
Procedure, shortened: as §2

[1] = Postemergence, Rate 125 g/ha, scale of 0 to 10 where 0 is no effect and 10 is complete control
[2] = Postemergence, Rate 250 g/ha, scale of 0 to 10, 0 is no effect, 10 is complete control
[3] = Postemergence, Rate 1000 g/ha, scale 0 to 10 (0 no effect, 10 complete control)
[4] = Preemergence, Rate 125 g/ha, scale of 0 to 10 where 0 is no effect and 10 is complete control
[5] = Preemergence, Rate 250 g/ha, scale 0 to 10 (0 no effect, 10 complete control)
[6] = Preemergence, Rate 500 g/ha, scale of 0 to 10 where 0 is no effect and 10 is complete control
[7] = Rate 1000 g/ha, Preemergence, scale 0 to 10 (0 no effect, 10 complete control)
[8] = Pre-emergence, Rate 1000 g/ha, scale 0 to 10 (0 no effect, 10 complete control)
[9] = Rate 125 g/ha, under heading Pre-emergence, flood test species, visual evaluation after twelve to sixteen days
[10] = Rate 250 g/ha, Pre-emergence (flood test species), scale 0 to 10, 0 is no effect, 10 is complete control
[11] = Rate 500 g/ha, Pre-emergence section of Table B, 0 to 10 scale (0 no effect, 10 complete control)
[12] = Postemergence, Rate 500 g/ha, scale of 0 to 10 where 0 is no effect and 10 is complete control

## CCOP(=O)(OCC)C(C)n1c(=O)on(C(=O)N(c2ccc(F)cc2)C(C)C)c1=O (centres unmarked) [Compound 617]
soybean; [1]
  Plant response rating, Soybean: 1
soybean; [2]
  Soybean plant response rating: 3
soybean; [3]
  Soybean plant response rating: 7
soybean; [4]
  Soybean plant response rating: 0
soybean; [5]
  Plant response rating, Soybean: 0
soybean; [6]
  Plant response rating, Soybean: 0
soybean; [7]
  Plant response rating, Soybean: 1
bamyardgrass; [8]
  Barnyardgrass plant response rating: 0
bamyardgrass; [9]
  Barnyardgrass plant response rating (0 to 10 scale, 0 is no effect, 10 is complete control): 0
bamyardgrass; [10]
  Barnyardgrass plant response rating: 0
bamyardgrass; [11]
  Barnyardgrass plant response rating: 0
Surinam grass; [1]
  Plant response rating, B. signalgrass: 0
Surinam grass; [2]
  B. signalgrass plant response rating: 0
Surinam grass; [12]
  Plant response rating, B. signalgrass: 0
Surinam grass; [3]
  B. signalgrass plant response rating: 3
Surinam grass; [4]
  B. signalgrass plant response rating: 0
Surinam grass; [5]
  Plant response rating, B. signalgrass: 4
Surinam grass; [6]
  B. signalgrass plant response rating: 5
Surinam grass; [7]
  Plant response rating, B. signalgrass: 8
bedstraw; Rate 125 g/ha
  Bedstraw plant response rating: 0
bedstraw; Rate 250 g/ha
  Plant response rating, Bedstraw: 0
bedstraw; Rate 500 g/ha
  Bedstraw plant response rating: 0
bedstraw; Rate 1000 g/ha
  Plant response rating, Bedstraw: 0
Duck salad; [8]
  Ducksalad plant response rating: 0
Duck salad; [9]
  Ducksalad plant response rating (0 to 10 scale, 0 is no effect, 10 is complete control): 0
Duck salad; [10]
  Ducksalad plant response rating: 0
Duck salad; [11]
  Ducksalad plant response rating: 0
blackgrass; [1]
  Plant response rating, Blackgrass: 0
blackgrass; [2]
  Blackgrass plant response rating: 0
blackgrass; [12]
  Plant response rating, Blackgrass: 0
blackgrass; [3]
  Blackgrass plant response rating: 6
blackgrass; [4]
  Blackgrass plant response rating: 0
blackgrass; [5]
  Plant response rating, Blackgrass: 6
blackgrass; [6]
  Blackgrass plant response rating: 6
blackgrass; [7]
  Plant response rating, Blackgrass: 10
velvetleaf; [1]
  Plant response rating, Velvetleaf: 0
velvetleaf; [2]
  Velvetleaf plant response rating: 0
velvetleaf; [3]
  Velvetleaf plant response rating: 2
velvetleaf; [4]
  Velvetleaf plant response rating: 0
velvetleaf; [5]
  Plant response rating, Velvetleaf: 0
velvetleaf; [6]
  Plant response rating, Velvetleaf: 0
velvetleaf; [7]
  Plant response rating, Velvetleaf: 0
Sugar beet; [1]
  Plant response rating, Sugarbeets: 0
Sugar beet; [2]
  Sugarbeets plant response rating: 0
Sugar beet; [3]
  Sugarbeets plant response rating: 0
Sugar beet; [4]
  Sugarbeets plant response rating: 0
Sugar beet; [5]
  Plant response rating, Sugarbeets: 0
Sugar beet; [6]
  Plant response rating, Sugarbeets: 0
Sugar beet; [7]
  Plant response rating, Sugarbeets: 0
cocklebur; [1]
  Plant response rating, Cocklebur: 0
cocklebur; [2]
  Cocklebur plant response rating: 0
cocklebur; [12]
  Plant response rating, Cocklebur: 2
cocklebur; [3]
  Cocklebur plant response rating: 3
cocklebur; [4]
  Cocklebur plant response rating: 0
cocklebur; [5]
  Plant response rating, Cocklebur: 0
cocklebur; [6]
  Plant response rating, Cocklebur: 0
cocklebur; [7]
  Plant response rating, Cocklebur: 0
Giant foxtail; [1]
  Plant response rating, Giant foxtail: 0
Giant foxtail; [2]
  Giant foxtail plant response rating: 4
Giant foxtail; [12]
  Plant response rating, Giant foxtail: 0
Giant foxtail; [3]
  Giant foxtail plant response rating: 6
Giant foxtail; [4]
  Giant foxtail plant response rating: 9
Giant foxtail; [5]
  Plant response rating, Giant foxtail: 9
Giant foxtail; [6]
  Plant response rating, Giant foxtail: 9
Giant foxtail; [7]
  Plant response rating, Giant foxtail: 10
Smallflower flatsedge; [8]
  S. Flatsedge plant response rating: 0
Smallflower flatsedge; [9]
  S. Flatsedge plant response rating (0 to 10 scale, 0 is no effect, 10 is complete control): 0
Smallflower flatsedge; [10]
  S. Flatsedge plant response rating: 0
Smallflower flatsedge; [11]
  S. Flatsedge plant response rating: 0
Purple nutsedge; [1]
  Plant response rating, Nutsedge: 0
Purple nutsedge; [12]
  Plant response rating, Nutsedge: 0
Purple nutsedge; [3]
  Nutsedge plant response rating: 0
Purple nutsedge; [4]
  Nutsedge plant response rating: 0
Purple nutsedge; [5]
  Plant response rating, Nutsedge: 0
Purple nutsedge; [6]
  Plant response rating, Nutsedge: 5
Purple nutsedge; [7]
  Plant response rating, Nutsedge: 8
corn; [1]
  Plant response rating, Corn: 0
corn; [2]
  Corn plant response rating: 0
corn; [12]
  Plant response rating, Corn: 0
corn; [3]
  Corn plant response rating: 0
corn; [4]
  Corn plant response rating: 0
corn; [5]
  Plant response rating, Corn: 0
corn; [6]
  Plant response rating, Corn: 0
corn; [7]
  Plant response rating, Corn: 0
rape; [1]
  Plant response rating, Rape: 0
rape; [2]
  Rape plant response rating: 0
rape; [12]
  Plant response rating, Rape: 0
rape; [3]
  Rape plant response rating: 0
rape; [4]
  Rape plant response rating: 0
rape; [5]
  Plant response rating, Rape: 0
rape; [6]
  Plant response rating, Rape: 0
rape; [7]
  Plant response rating, Rape: 0
crabgrass; [1]
  Plant response rating, Crabgrass: 0
crabgrass; [2]
  Crabgrass plant response rating: 2
crabgrass; [12]
  Plant response rating, Crabgrass: 0
crabgrass; [3]
  Crabgrass plant response rating: 7
crabgrass; [5]
  Plant response rating, Crabgrass: 5
crabgrass; [6]
  Plant response rating, Crabgrass: 8
crabgrass; [7]
  Plant response rating, Crabgrass: 8
wheat; [1]
  Plant response rating, Wheat: 0
wheat; [2]
  Wheat plant response rating: 0
wheat; [3]
  Wheat plant response rating: 0
wheat; [4]
  Wheat plant response rating: 0
wheat; [5]
  Plant response rating, Wheat: 0
wheat; [6]
  Plant response rating, Wheat: 0
wheat; [7]
  Plant response rating, Wheat: 2
rice; [8]
  Rice plant response rating: 0
rice; [9]
  Rice plant response rating (0 to 10 scale, 0 is no effect, 10 is complete control): 0
rice; [10]
  Rice plant response rating: 0
rice; [11]
  Rice plant response rating: 0

— patent publication US6737383B1, “Herbicidal oxadiazolidines” (priority 1999, dated 2004)
